These results are taken from US5369112A, “Method of treating cataracts caused by active oxygen” (Mitsubishi Gas Chemical Company, Inc., priority 1991, dated 1994).

The subject of data set [1] is liver diseases caused by carbon tetrachloride, endotoxin shock and cataracts caused by hydrocortisone. As to conditions: Watanabe 1988; Matsumoto 1989; Nishigoori 1989; cited from earlier work.
The conditions of data set [2]: 109th meeting of Japan Pharmacological Society, 1989; cited from earlier work.
In the next data set the test system is kidney. The following applies: Watanabe et al, Hiroshima J. Med. Sci.; cited from earlier work.
Data set [3] relates to male mice SPF-ICR. The data set can be described thus: Acute Toxicity Test (3), intraperitoneal. It counts as in vivo. The following applies: for mice died: 8 mice per group, 14 days. The source says:
One group consisted of 8 mice.

The nature of data set [4]: Hydroxy radical scavenging activity (H2O2-(Fe^2+-DTPA), DMPO spin trapping, ESR). The following applies: Example 4, Table 9; pH 7.3; read-out: .OH scavenging activity IC50. It counts as biochemical. The source says:
Activity of PQQ esters to scavenge hydroxy radical (·OH) produced in the system of H2 O2 --(Fe^2+ -DTPA) was examined by spin trapping method [using 5,5-dimethyl-1-pyrroline-N-oxide (hereinafter referred to as "DMPO") as a spin trapping agent] where electron spin resonance (hereinafter referred to as "ESR") was used. DTPA means diethylenetriamine-pentaacetic acid.
H2 O2 +Fe^2 -DTPA complex→·OH+OH^-
The following reagents were successively put in a test tube and stirred after addition of H2 O2 6 to initiate the reaction and the reaction mixture was transferred to a quartz cell used for measurement of ESR.
Hydroxy radical scavenging activity of OPQ and esters thereof was examined in the same manner as in Example 3.

For data set [5], the system named is mice. The following applies: mouse, in vivo, ip. As to the method: One group consisted of 8 mice. For administration, PQQ·2Na and OPQ and esters thereof were dissolved in physiological saline and PQQ trimethyl ester and PQQ triallyl ester were suspended in 1% Tween 80-containing physiological saline, respectively.
PQQ·2Na, PQQ trimethyl ester, PQQ triallyl ester and OPQ and esters thereof were intraperitoneally administered to mice and they were bred in the same manner as in the above acute toxicity test. Urine of the mice was taken every day and glucose concentration was measured using clinical examination reagent (trademark: […] 2 manufactured by Miles.Sankyo Co.).

For data set [6], the system named is mice. The data set can be described thus: Kidney Toxicity Determined by Blood Examination (3). The data set is classed as in vivo. The following applies: mouse serum. As to the method:
Thereafter, the mice were fasted (with feeding only water) and then after 18 hours, blood was collected and serum was obtained therefrom. Glucose, urea nitrogen and creatinine in the serum were examined by clinical examination reagent (trademark: FUJI DRYCHEMSLIDE manufactured by Fuji Photo Film Co., Ltd.).

The subject of data set [7] is Hydrocortisone-Induced Cataract of Hen's Eggs. The data set can be described thus: Effect on hydrocortisone-induced cataract of hen's eggs. The data set is classed as in vivo, white leghorn (hen's eggs). As to conditions: 1 μmole at 3, 10 and 20 h after hydrocortisone; lens at 48 h. As to the method: Fertilized eggs of white leghorn were incubated in an incubator at a temperature of 37° C. and 70% in humidity. The day on which the incubation was started was taken to be one day old. […] eggs of 15 day old were prepared and divided into 7 groups, each of which included 5 eggs (A-G). A small hole was bored through the eggshell above air chamber of the eggs of groups B-G and 0.25 μmole (as 0.2 ml solution) of hydrocortisone sodium succinate was administered into the air chamber through the hole and then, the hole was sealed with a cellophane tape. To The eggs of groups C-G was administered 1 μmole of following compounds after 3, 10 and 20 hours from administration of hydrocortisone sodium succinate. That is, 0.2 ml of a solution of PQQ·2Na in distilled water was administered to the eggs of group C, 0.2 ml of a suspension of PQQ trimethyl ester in 1% Tween 80 solution was administered to the eggs of group D, 0.2 ml of a suspension of triallyl ester in 1% Tween 80 solution was administered to the eggs of group E, 0.2 ml of a solution of OPQ in 10 mM NaCO3 solution was administered to the eggs of group F, and 0.2 ml of a solution of methyl OPQ in 10 mM NaCO3 solution was administered to the eggs of group G.
Crystal lens was taken out after 48 hours from administration of hydrocortisone sodium succinate and degree of cataract was judged by the criteria according to the Nishigori et al method (Nishigori et al, "Investigative Ophthalmology & Visual Science", Vol. 25, page 1051, 1984).
5 The whole nucleus was hazed in white.

For data set [8], the system named is male mice SPF-ICR. The data set can be described thus: Acute Toxicity Test (4), oral. The data set is classed as in vivo. As to conditions: oral 1.0, 1.5 and 2.0 g/kg, 8 mice per group, 14 days. As to the method:
To male mice SPF-ICR five weeks old (supplied by Japan Charles River Co.) was orally administered OPQ at dosages of 1.0, 1.5 and 2.0 g per kg of body weight of mouse, respectively and they were bred for 14 days at 25° C. One group consisted of 8 mice. No mice died.

Data set [9] is described as follows: Superoxide scavenging activity (hypoxanthine-xanthine oxidase, DMPO spin trapping, ESR). The following applies: Example 2, Table 7; pH 7.3; read-out: O2^- scavenging activity IC50. It counts as biochemical. The text has this:
Activity of PQQ esters to scavenge superoxide (O2^-) produced in the system of hypoxanthinexanthine oxidase was examined by spin trapping method [using 5,5-dimethyl-l-pyrroline-N-oxide (hereinafter referred to as "DMPO") as a spin trapping agent] where electron spin resonance (hereinafter referred to as "ESR") was used.
Hypoxanthine+2O2 →2O2^- +uric acid (xanthine oxidase)
The following reagents were successively put in a test tube and stirred after addition of the hypoxanthine 7 to initiate the reaction and the reaction mixture was transferred to a quartz cell used for measurement of ESR.
Superoxide scavenging activity of OPQ and esters thereof was examined in the same manner as in Example 1.

Data set [10] relates to male mice SPF-ICR. The data set can be described thus: Acute toxicity test (1), intraperitoneal. The following applies: mouse, in vivo. Here is the method: To male mice SPF-ICR five weeks old (supplied by Japan Charles River Co.) were intraperitoneally administered PQQ·2Na, PQQ trimethyl ester, PQQ triallyl ester, OPQ, 1-methylpropyl OPQ, 2-methylthioethyl OPQ and benzyl OPQ at dosages of 40, 80, 160 and 200 mg per kg of body weight of mouce, respectively and they were bred for 14 days at 25° C. One group consisted of 8 mice. For administration, PQQ·2Na and OPQ and esters thereof were dissolved in physiological saline and PQQ trimethyl ester and PQQ triallyl ester were suspended in 1% Tween 80-containing physiological saline, respectively.

For data set [11], the system named is mice. The data set can be described thus: Kidney Toxicity Determined by Blood Examination (1). The data set is classed as in vivo. As to conditions: mouse serum. Here is the method:
After lapse of one day from the administration, the mice were fasted (with feeding only water) and then after 18 hours, blood was collected and serum was obtained therefrom. Glucose, urea nitrogen and creatinine in the serum were examined by clinical examination reagent (trademark: FUJI DRYCHEMSLIDE manufactured by Fuji Photo Film Co., Ltd.).

Structures are written as SMILES. Read-outs that look alike come from different tables or passages of the source.

Turning to `O=C(O)c1cc(C(=O)O)c2c(n1)C(=O)C(=O)c1cc(C(=O)O)[nH]c1-2` [PQQ, pyrrolo quinoline quinone], in data set [1], the “inhibition of diseases” value is “inhibits liver diseases caused by carbon tetrachloride, endotoxin shock and cataracts caused by hydrocortisone”. In addition, in [2], the “active oxygen scavenging action” value is “strong active oxygen scavenging action”. Moreover, the “kidney toxicity” value with kidney is given as “has kidney toxicity”.
As to `O=C(O)c1cc(C(=O)O)c2c(n1)c1ncoc1c1cc(C(=O)O)[nH]c12` [OPQ, 2,8,10-tricarboxy-1-H-oxazo[5,4-h]-pyrrolo[2,3-f]quinoline], the mice died result in the data set on male mice SPF-ICR [3] (i.p. 0.1-0.4 g/kg) was “No mice died”; with male mice SPF-ICR [3] (i.p. 0.8 g/kg), “two mice died”; in the data set with male mice SPF-ICR [3] (i.p. 1.0 g/kg), “three mice died”; in the data set with male mice SPF-ICR [3] (i.p. 1.2 g/kg), “six mice died”; in the data set on male mice SPF-ICR [8], “No mice died”; in the data set with male mice SPF-ICR [10], “no mice died”. Also, the LD50 result with male mice SPF-ICR [3] (mouse, in vivo, ip, 336 h) is “about 1.0 g/kg-mouse”. Moreover, the IC50 was 198 µM in [4] and 1.22 µM in data set [9]. Besides, the glucose in urine entry with mice [5] (20 mg/kg), with mice [5] (40 mg/kg), in the data set on mice [5] (80 mg/kg), in the data set with mice [5] (160 mg/kg), in the data set with mice [5] (200 mg/kg) and in the data set with mice [5] (400 mg/kg) was “-” each time. The glucose in urine entry with mice [5] (800 mg/kg), with mice [5] (1000 mg/kg) and in the data set with mice [5] (1200 mg/kg) was “-” in each case. Also, the Creatinine in the data set with mice [6] (i.p. 150 mg/kg) stood at 0.75 ± 0.05 mg/dL; in the data set with mice [6] (i.p. 300 mg/kg), 0.78 ± 0.04 mg/dL; in the data set with mice [6] (i.p. 400 mg/kg), 0.78 ± 0.04 mg/dL; in the data set on mice [6] (i.p. 600 mg/kg), 0.78 ± 0.11 mg/dL; in the data set on mice [11] (40 mg/kg) it was 0.70 ± 0.10 mg/dL; in the data set with mice [11] (80 mg/kg), 0.80 ± 0.10 mg/dL. Also, the figures for the Creatinine in the data set on mice [11] (160 mg/kg) and in the data set with mice [11] (200 mg/kg) were 0.73 ± 0.09 mg/dL and 0.81 ± 0.08 mg/dL, respectively. Also, the Glucose with mice [6] (i.p. 150 mg/kg) came out at 106 ± 21 mg/dL; with mice [6] (i.p. 300 mg/kg), 80 ± 15 mg/dL; in the data set on mice [6] (i.p. 400 mg/kg), 104 ± 18 mg/dL; in the data set with mice [6] (i.p. 600 mg/kg) it was 74 ± 11 mg/dL; in the data set with mice [11] (40 mg/kg), 90 ± 18 mg/dL; in the data set with mice [11] (80 mg/kg), 86 ± 10 mg/dL. In addition, the figures for the Glucose with mice [11] (160 mg/kg) and in the data set on mice [11] (200 mg/kg) were 90 ± 23 mg/dL and 85 ± 24 mg/dL, respectively. The Urea nitrogen in the data set with mice [6] (i.p. 150 mg/kg) amounted to 32 ± 3 mg/dL; with mice [6] (i.p. 300 mg/kg) it was 29 ± 2 mg/dL; in the data set on mice [6] (i.p. 400 mg/kg), 29 ± 3 mg/dL; in the data set with mice [6] (i.p. 600 mg/kg), 32 ± 5 mg/dL; in the data set on mice [11] (40 mg/kg), 25 ± 3 mg/dL; in the data set with mice [11] (80 mg/kg), 23 ± 4 mg/dL. The Urea nitrogen with mice [11] (160 mg/kg) stood at 27 ± 6 mg/dL; in the data set with mice [11] (200 mg/kg) it was 28 ± 4 mg/dL. Besides, the “Judgement 2 (Slight opaque ring was seen in crystal lens), eggs” value in data set [7] is reported as 1/5. Also, the “Judgement 3 (Clear ring of white haze was seen in crystal lens), eggs” value in [7] is on record as 1/5. In addition, the “Judgement 4 ~ 5 (white haze of pinhole size in nucleus ~ whole nucleus hazed in white), eggs” value in data set [7] is given as 3/5.

For orientation: IC50 means the point on the concentration scale where inhibition reaches its midpoint.
